Marks after values point to notes of the source that are not given here.
Assays:
Format in all cases: in vivo
[1] = test system: wheat (Triticum aestivum) cv. Balitus; assay: Root and shoot dry weight and leaf nitrogen content of hydroponically grown wheat under optimal conditions (Example 1)
Method: To investigate the effect of the combinations on the weight parameters, the seeds of wheat (Triticum aestivum) cv. Balitus were sown in a hydroponic growing system (Araponics, Liege, Belgium) using Hoagland's solution (control). Twenty days after sowing, plants (except for control plants) were sprayed by aqueous solution of either MTU (10 μM) or by a nitrogen utilization enhancer alone or by a combination of MTU (10 μM) with the nitrogen utilization enhancer. The plants were grown in the Czech Republic in a glasshouse at 16-25° C. under natural and artificial light during the winter period. The root dry weight (RDW), shoot dry weight (SDW) and the nitrogen content in the leaves of at least 30 plants were measured 45 days after the plants had been sown. RDW and SDW were recorded after drying the plants at 70° C. for 2 days.

[2] = test system: sunflower (Helianthus sp. L.); assay: Seed yield of field-grown sunflower (Example 6); details: Hungary 2020, MTU 2 mg/L at 300 L/ha, pyroglutamic acid 50 g/ha
Method: Seeds of sunflower (Helianthus sp. L.) were sown in Hungary in 2020 in accordance with the Good Experimental Practice criteria. MTU was applied by spraying at a concentration of 10 μM (2 mg/L) and a dosage of 300 L/ha. Pyroglutamic acid was used at 50 g/ha, applied at a dosage of 300 L/ha in a water solution.

[3] = test system: wheat (Triticum aestivum) cv. Balitus; assay: Root and shoot dry weight and total chlorophyll content of wheat under drought stress conditions (Example 2)
Method: To investigate the effect of the combinations on the weight parameters, and the total content of chlorophyll, seeds of wheat (Triticum aestivum) cv. Balitus were sown in a hydroponic growing system (Araponics, Liege, Belgium) using Hoagland's solution (control). Twenty days after sowing plants (except for control plants) were sprayed by either MTU (10 μM) or by nitrogen utilization enhancers alone or with a combination of MTU (10 μM) and nitrogen utilization enhancers. The plants were grown in a glasshouse at 20-28° C. under a combination of natural and artificial light. Since the treatment (20 days after sowing), the plants received low water doses. […] The root dry weight (RDW), shoot dry weight (SDW), and total chlorophyll content (TCC) of at least 25 plants were measured at the end of the experiment—45 days after the plants had been sown. RDW and SDW were recorded after drying the plants at 70° C. for 2 days. The chlorophyll content of each plant was measured by SPAD meter reading at the end of the experiment and TCC was calculated as SPAD value per SDW.

[4] = test system: Winter wheat variety Barrel; assay: Nitrogen content in grains of field-grown winter wheat, Kjeldahl method (Example 4); details: MTU 0.4 g/ha, pyroglutamic acid 40 g/ha
Method: (§1) The field experiments were done in 2019 in the UK and they were performed in accordance with the Good Experimental Practice criteria. Winter wheat variety Barrel was used. MTU was applied by spraying at a concentration of 10 μM (2 mg/L) and a dosage of 200 L/ha (0.4 g/ha of MTU). Pyroglutamic acid was used at 40 g/ha, applied at a dose of 200 l/ha in a water solution.
Wheat grains used to make bread require a grain nitrogen content of 2.1% (w/w) or higher. Grains from each sample treatment from the experiment described in Example 3 were analyzed for nitrogen content. The analysis was done using a Kjeldahl method (Kjeldahl, J. (1883) “New method for the determination of nitrogen in organic substances), Zeitschrift für analytische Chemie, 22 (1): 366-383.

[5] = test system: Winter wheat variety Barrel; assay: Grain yield of field-grown winter wheat (Example 3); details: MTU 0.4 g/ha, pyroglutamic acid 40 g/ha, UK 2019
Method: as §1

winter wheat plants = assay: Root dry weight of winter wheat, method of testing the synergistically effective amounts of MTU and PCA (optimal conditions)
Method: The synergistically effective amounts of MTU and pyroglutamic acid (PCA) were determined by the method of determining the root growth of winter wheat plants. […].
As a first control, MTU was applied to another group of the winter wheat plants at the following amounts: 1, 2, 4 and 8 mg/liter of the composition.
As a second control, PCA was applied to another group of the winter wheat plants at the amount of 200 mg/liter of the composition.
As a negative control, another group of the winter wheat plants was applied only water in the same amount as the compositions applied to the above-described groups.
The plants were then grown at 20° C. under natural light for a period of 45 days. The root dry weight (RDW) of at least 30 plants was measured 45 days after the plants had been sown for each group. RDW was recorded after drying the plants at 70° C. for 2 days.
The relative increase in RDW was calculated as % of control (Table 1). The % of control for combinations containing MTU: PCA in ratios 1:200, 2:200 and 4:200 was higher than the sum of % of control of only PCA group (+8.8%) with the MTU group (1, 2 or 4 mg).

[6] = test system: Oilseed rape variety Elgar (2018) and Elizze (2019); assay: Grain yield of field-grown oilseed rape (Example 5); details: MTU 0.4 g/ha, pyroglutamic acid 40 g/ha
Method: Oilseed rape variety Elgar (2018) and Elizze (2019) were grown in the UK in the years 2018 and 2019. Experiments were performed in accordance with the Good Experimental Practice criteria. MTU was applied by spraying at a concentration of 10 μM (2 mg/L) and a dosage of 200 L/ha (0.4 g/ha of MTU). Pyroglutamic acid was used at 40 g/ha, applied at a dosage of 200 L/ha in a water solution.

[7] = UK 2018, application at BBCH 13
[8] = UK 2018, application at BBCH 65
[9] = UK 2019, application at BBCH 65
[10] = UK 2019, application at BBCH 70
[11] = 200 mg in 1 liter of composition

COCCNC(=O)Nc1cnns1 [MTU, 1-(2-methoxyethyl)-3-(1,2,3-thiadiazol-5yl)urea]
Nitrogen content in the leaves ([1]; concentration 2 mg/L): 4.47 weight %
RDW % of control ([1]; concentration 2 mg/L): +3.8%
RDW (root dry weight) ([1]; concentration 2 mg/L): 0.83 g
SDW % of control ([1]; concentration 2 mg/L): +3.9%
SDW (shoot dry weight) ([1]; concentration 2 mg/L): 1.58 g
Yield % of control ([2]; application at BBCH 16-18): +12.0%
Yield (seed) ([2]; application at BBCH 16-18): 3.08 t/ha
Yield % of control ([2]; application at BBCH 55): +4.7%
Yield (seed) ([2]; application at BBCH 55): 2.88 t/ha
RDW (root dry weight) ([3]; concentration 2 mg/L): 0.74 g
SDW (shoot dry weight) ([3]; concentration 2 mg/L): 1.28 g
Nitrogen content % of control ([4]; application at BBCH 32): −9.5%
Nitrogen content (%) of grains ([4]; application at BBCH 32): 1.82%
Nitrogen content % of control ([4]; application at BBCH 39): −2.0%
Nitrogen content (%) of grains ([4]; application at BBCH 39): 1.97%
Nitrogen content % of control ([4]; application at BBCH 50-55): −10.0%
Nitrogen content (%) of grains ([4]; application at BBCH 50-55): 1.81%
Yield % of control ([5]; application at BBCH 32): +2.4%
Yield (grain) ([5]; application at BBCH 32): 10.225 t/ha
Yield % of control ([5]; application at BBCH 39): +2.4%
Yield (grain) ([5]; application at BBCH 39): 10.230 t/ha
Yield % of control ([5]; application at BBCH 50-55): +0.5%
Yield (grain) ([5]; application at BBCH 50-55): 10.033 t/ha
RDW % of control (winter wheat plants; 1 mg in 1 liter of composition): +5.5%
RDW (root dry weight) (winter wheat plants; 1 mg in 1 liter of composition): 0.96 g
RDW % of control (winter wheat plants; 2 mg in 1 liter of composition): +7.7%
RDW (root dry weight) (winter wheat plants; 2 mg in 1 liter of composition): 0.98 g
RDW % of control (winter wheat plants; 4 mg in 1 liter of composition): +15.4%
RDW (root dry weight) (winter wheat plants; 4 mg in 1 liter of composition): 1.05 g
RDW % of control (winter wheat plants; 8 mg in 1 liter of composition): +18.1%
RDW (root dry weight) (winter wheat plants; 8 mg in 1 liter of composition): 1.07 g
Yield % of control [6, 7]: +2.9%
Yield (grain) [6, 7]: 3.90 t/ha
Yield % of control [6, 8]: +4.8%
Yield (grain) [6, 8]: 4.61 t/ha
Yield % of control [6, 9]: +6.2%
Yield (grain) [6, 9]: 3.93 t/ha
Yield % of control [6, 10]: +3.8%
Yield (grain) [6, 10]: 3.84 t/ha

O=C1CC[C@@H](C(=O)O)N1 [Pyroglutamic acid, pyroglutamic acid]
RDW % of control ([1]; concentration 200 mg/L): +6.3%
RDW (root dry weight) ([1]; concentration 200 mg/L): 0.85 g
SDW % of control ([1]; concentration 200 mg/L): +6.8%
SDW (shoot dry weight) ([1]; concentration 200 mg/L): 1.63 g
Nitrogen content in the leaves ([1]; concentration 400 mg/L): 4.65 weight %
RDW % of control ([1]; concentration 400 mg/L): +13.8%
RDW (root dry weight) ([1]; concentration 400 mg/L): 0.91 g
SDW % of control ([1]; concentration 400 mg/L): +10.5%
SDW (shoot dry weight) ([1]; concentration 400 mg/L): 1.68 g
Yield % of control ([2]; application at BBCH 16-18): +5.0%
Yield (seed) ([2]; application at BBCH 16-18): 2.89 t/ha
Yield % of control ([2]; application at BBCH 55): +6.3%
Yield (seed) ([2]; application at BBCH 55): 2.92 t/ha
RDW % of control ([3]; concentration 200 mg/L): +11.9%
RDW (root dry weight) ([3]; concentration 200 mg/L): 0.75 g
SDW % of control ([3]; concentration 200 mg/L): −1.6%
SDW (shoot dry weight) ([3]; concentration 200 mg/L): 1.2 g
RDW % of control ([3]; concentration 400 mg/L): +14.9%
RDW (root dry weight) ([3]; concentration 400 mg/L): 0.77 g
SDW % of control ([3]; concentration 400 mg/L): +0.8%
SDW (shoot dry weight) ([3]; concentration 400 mg/L): 1.23 g
Nitrogen content % of control ([4]; application at BBCH 32): −7.0%
Nitrogen content (%) of grains ([4]; application at BBCH 32): 1.87%
Nitrogen content % of control ([4]; application at BBCH 39): −5.5%
Nitrogen content (%) of grains ([4]; application at BBCH 39): 1.90%
Nitrogen content % of control ([4]; application at BBCH 50-55): −10.0%
Nitrogen content (%) of grains ([4]; application at BBCH 50-55): 1.81%
Yield % of control ([5]; application at BBCH 32): +1.8%
Yield (grain) ([5]; application at BBCH 32): 10.167 t/ha
Yield % of control ([5]; application at BBCH 39): +2.0%
Yield (grain) ([5]; application at BBCH 39): 10.183 t/ha
Yield % of control ([5]; application at BBCH 50-55): +2.6%
Yield (grain) ([5]; application at BBCH 50-55): 10.241 t/ha
RDW % of control (winter wheat plants; [11]): +8.8%
RDW (root dry weight) (winter wheat plants; [11]): 0.99 g
Yield % of control [6, 7]: +5.0%
Yield (grain) [6, 7]: 3.97* t/ha
Yield % of control [6, 8]: +23.9%
Yield (grain) [6, 8]: 5.45* t/ha
Yield % of control [6, 9]: +3.5%
Yield (grain) [6, 9]: 3.83 t/ha
Yield % of control [6, 10]: +5.4%
Yield (grain) [6, 10]: 3.90 t/ha

From patent US20250143306A1, “COMBINATION FOR IMPROVING PLANT GROWTH AND/OR YIELD, FORMULATION AND METHOD FOR INCREASING PLANT GROWTH, STRESS RESISTANCE, AND YIELDS, AND USE THEREOF” (INSTITUTE OF EXPERIMENTAL BOTANY CAS CR, V.V.I., priority 2022, published 2025)
